From ChEMBL document CHEMBL1201862, “PubChem BioAssay data set” (2004)
Activity calls are given as the source filed them.

Legend:
[1] = viability of uninfected HEp-2 cells – cell-based, HTS, cytotoxicity control for RSV inhibitor project, dose response (AID 2410); type: functional; conditions: human respiratory syncytial virus
Streptokinase A = molecular target: T1, Streptokinase A (Streptococcus pyogenes serotype M1, UniProt P10520); test: viability-normalized secreted streptokinase activity reduction – plasminogen activation absorbance, OD405, dose response (AID 1914); type: functional, Streptococcus pyogenes M1 GAS;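 also: secreted streptokinase activity via plasminogen activation per viability signal from cell pellet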
T1 sequence (P10520 whole entry): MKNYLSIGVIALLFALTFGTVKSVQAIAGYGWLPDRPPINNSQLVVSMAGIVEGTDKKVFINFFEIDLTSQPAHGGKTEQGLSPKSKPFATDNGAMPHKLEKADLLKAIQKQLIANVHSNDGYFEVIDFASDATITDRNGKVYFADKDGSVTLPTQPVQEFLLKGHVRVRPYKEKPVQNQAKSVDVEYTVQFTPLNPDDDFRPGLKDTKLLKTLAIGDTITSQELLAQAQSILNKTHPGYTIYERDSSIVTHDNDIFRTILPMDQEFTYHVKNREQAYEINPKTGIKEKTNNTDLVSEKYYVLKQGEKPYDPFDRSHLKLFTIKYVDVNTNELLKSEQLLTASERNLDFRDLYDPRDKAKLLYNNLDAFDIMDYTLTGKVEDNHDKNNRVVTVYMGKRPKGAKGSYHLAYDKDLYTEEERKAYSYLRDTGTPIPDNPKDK

[2] = reduction of Shn3 3'UTR-driven luciferase in osteoblasts – cell-based, Clone20 osteoblasts, firefly luciferase, cherry-picked, dose response (AID 624132); type: functional;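 also: firefly luciferase luminescence from reporter carrying the Shn3 3'UTR in osteoblasts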
[3] = Luminescence Cell-Based Dose Retest to Confirm Inhibitors of Cancer Stem Cells. [Related pubchem assays (depositor defined):AID2717, AID2721]; type: functional; conditions: Homo sapiens
INS1 = test: INS-1E survival protection against cytokine death – cell-based, luminescence, retest, dose response (AID 449756); type: functional; conditions: Rattus norvegicus;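 also: cell death triggered by IL-1 beta plus TNF-alpha plus IFN-gamma mixture; protective hits raise ATP signal compared with cytokine alone wells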
[4] = system: Streptococcus sp. 'group A'; test: Streptococcus pyogenes SK(-)GAS viability under kanamycin – luminescence, BacTiterGlo, confirmation, counter-screen for streptokinase expression inhibitor project, dose response (AID 1900); type: functional, organism-based
Streptococcus [5] = test: Luminescence Microorganism-Based Dose Response Follow up to Identify Compounds Cytotoxic to Streptococcus. [Related pubchem assays: 1677 (Project Summary), 1915, 1914, 1902 (Retest at Dose), 1900 (Counter Screen), 1662 (Primary HTS)]; type: functional, organism-based
[6] = non-specific 3'UTR reporter inhibition in Clone20-Shn3RL – cell-based, Renilla luciferase, cherry-picked, counter-screen for Shn3 inhibitor project, dose response (AID 624133); type: functional
Streptococcus [7] = test: GAS UMAA2166 growth inhibition – luminescence, BacTiterGlo, counter-screen for streptokinase expression inhibitor project, dose response (AID 1915); type: functional, organism-based; conditions: read-out: EC50;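 also: potency for reduction of bacterial viability or growth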
[8] = molecular target: Peroxisome proliferator-activated receptor gamma/Nuclear receptor corepressor 2 (Homo sapiens, UniProt P37231+Q9Y618); type: functional
[9] = molecular target: Photoreceptor-specific nuclear receptor (Homo sapiens, UniProt Q9Y5X4); type: functional;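 also: potency for compounds that break the NR2E3 corepressor complex and count as activators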
[10] = molecular target: Melanin-concentrating hormone receptor 1 (Homo sapiens, UniProt Q99705); test: Fluorescence-based counterscreen for antagonists of the G-protein coupled receptor 7 (GPR7): cell-based high throughput dose response assay to identify antagonists of the melanin-concentrating hormone receptor 1 (MCHR1).; type: functional
[11] = molecular target: T2, Neuropeptides B/W receptor type 1 (Homo sapiens, UniProt P48145); test: Fluorescence-based dose response cell-based high throughput screening assay to identify antagonists of the G-protein coupled receptor 7 (GPR7). [Related pubchem assays: 1952 (Screening assay (GPR7 antagonists).), 1880 (Summary AID.)]; type: functional
T2 sequence (P48145 whole entry): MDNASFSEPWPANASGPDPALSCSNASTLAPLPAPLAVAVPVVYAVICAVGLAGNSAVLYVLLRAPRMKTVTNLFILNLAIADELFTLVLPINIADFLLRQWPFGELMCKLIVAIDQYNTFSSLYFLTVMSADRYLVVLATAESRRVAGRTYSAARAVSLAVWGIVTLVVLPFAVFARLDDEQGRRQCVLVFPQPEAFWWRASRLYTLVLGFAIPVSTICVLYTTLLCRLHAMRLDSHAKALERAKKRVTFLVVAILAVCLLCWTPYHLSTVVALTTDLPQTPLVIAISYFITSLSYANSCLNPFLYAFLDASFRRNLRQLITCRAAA

Photoreceptor-specific nuclear receptor, sequence (Q9Y5X4 whole entry): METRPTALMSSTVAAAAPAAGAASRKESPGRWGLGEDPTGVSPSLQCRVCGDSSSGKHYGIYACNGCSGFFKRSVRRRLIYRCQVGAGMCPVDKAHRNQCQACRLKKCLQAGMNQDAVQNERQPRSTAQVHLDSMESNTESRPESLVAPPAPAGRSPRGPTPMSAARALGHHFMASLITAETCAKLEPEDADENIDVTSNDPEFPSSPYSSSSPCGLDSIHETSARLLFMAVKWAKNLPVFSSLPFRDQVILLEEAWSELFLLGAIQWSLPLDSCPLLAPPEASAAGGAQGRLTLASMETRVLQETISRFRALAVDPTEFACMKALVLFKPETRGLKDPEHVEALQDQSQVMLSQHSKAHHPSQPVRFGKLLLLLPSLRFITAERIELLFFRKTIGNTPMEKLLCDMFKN
Peroxisome proliferator-activated receptor gamma/Nuclear receptor corepressor 2, sequence (P37231 whole entry): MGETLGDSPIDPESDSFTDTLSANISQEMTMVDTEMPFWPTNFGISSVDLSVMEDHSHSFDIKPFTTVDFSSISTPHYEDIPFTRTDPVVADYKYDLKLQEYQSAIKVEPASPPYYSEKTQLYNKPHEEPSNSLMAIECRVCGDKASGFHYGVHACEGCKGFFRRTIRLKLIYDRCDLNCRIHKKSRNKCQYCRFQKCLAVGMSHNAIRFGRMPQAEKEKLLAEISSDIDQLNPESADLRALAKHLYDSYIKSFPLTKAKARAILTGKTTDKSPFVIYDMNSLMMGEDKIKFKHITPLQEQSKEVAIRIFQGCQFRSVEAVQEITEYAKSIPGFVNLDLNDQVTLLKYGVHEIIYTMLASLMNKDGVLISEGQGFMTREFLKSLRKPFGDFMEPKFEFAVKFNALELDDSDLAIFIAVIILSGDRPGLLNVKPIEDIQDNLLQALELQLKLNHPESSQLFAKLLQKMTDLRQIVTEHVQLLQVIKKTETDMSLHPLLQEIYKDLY
Peroxisome proliferator-activated receptor gamma/Nuclear receptor corepressor 2, sequence (Q9Y618 whole entry): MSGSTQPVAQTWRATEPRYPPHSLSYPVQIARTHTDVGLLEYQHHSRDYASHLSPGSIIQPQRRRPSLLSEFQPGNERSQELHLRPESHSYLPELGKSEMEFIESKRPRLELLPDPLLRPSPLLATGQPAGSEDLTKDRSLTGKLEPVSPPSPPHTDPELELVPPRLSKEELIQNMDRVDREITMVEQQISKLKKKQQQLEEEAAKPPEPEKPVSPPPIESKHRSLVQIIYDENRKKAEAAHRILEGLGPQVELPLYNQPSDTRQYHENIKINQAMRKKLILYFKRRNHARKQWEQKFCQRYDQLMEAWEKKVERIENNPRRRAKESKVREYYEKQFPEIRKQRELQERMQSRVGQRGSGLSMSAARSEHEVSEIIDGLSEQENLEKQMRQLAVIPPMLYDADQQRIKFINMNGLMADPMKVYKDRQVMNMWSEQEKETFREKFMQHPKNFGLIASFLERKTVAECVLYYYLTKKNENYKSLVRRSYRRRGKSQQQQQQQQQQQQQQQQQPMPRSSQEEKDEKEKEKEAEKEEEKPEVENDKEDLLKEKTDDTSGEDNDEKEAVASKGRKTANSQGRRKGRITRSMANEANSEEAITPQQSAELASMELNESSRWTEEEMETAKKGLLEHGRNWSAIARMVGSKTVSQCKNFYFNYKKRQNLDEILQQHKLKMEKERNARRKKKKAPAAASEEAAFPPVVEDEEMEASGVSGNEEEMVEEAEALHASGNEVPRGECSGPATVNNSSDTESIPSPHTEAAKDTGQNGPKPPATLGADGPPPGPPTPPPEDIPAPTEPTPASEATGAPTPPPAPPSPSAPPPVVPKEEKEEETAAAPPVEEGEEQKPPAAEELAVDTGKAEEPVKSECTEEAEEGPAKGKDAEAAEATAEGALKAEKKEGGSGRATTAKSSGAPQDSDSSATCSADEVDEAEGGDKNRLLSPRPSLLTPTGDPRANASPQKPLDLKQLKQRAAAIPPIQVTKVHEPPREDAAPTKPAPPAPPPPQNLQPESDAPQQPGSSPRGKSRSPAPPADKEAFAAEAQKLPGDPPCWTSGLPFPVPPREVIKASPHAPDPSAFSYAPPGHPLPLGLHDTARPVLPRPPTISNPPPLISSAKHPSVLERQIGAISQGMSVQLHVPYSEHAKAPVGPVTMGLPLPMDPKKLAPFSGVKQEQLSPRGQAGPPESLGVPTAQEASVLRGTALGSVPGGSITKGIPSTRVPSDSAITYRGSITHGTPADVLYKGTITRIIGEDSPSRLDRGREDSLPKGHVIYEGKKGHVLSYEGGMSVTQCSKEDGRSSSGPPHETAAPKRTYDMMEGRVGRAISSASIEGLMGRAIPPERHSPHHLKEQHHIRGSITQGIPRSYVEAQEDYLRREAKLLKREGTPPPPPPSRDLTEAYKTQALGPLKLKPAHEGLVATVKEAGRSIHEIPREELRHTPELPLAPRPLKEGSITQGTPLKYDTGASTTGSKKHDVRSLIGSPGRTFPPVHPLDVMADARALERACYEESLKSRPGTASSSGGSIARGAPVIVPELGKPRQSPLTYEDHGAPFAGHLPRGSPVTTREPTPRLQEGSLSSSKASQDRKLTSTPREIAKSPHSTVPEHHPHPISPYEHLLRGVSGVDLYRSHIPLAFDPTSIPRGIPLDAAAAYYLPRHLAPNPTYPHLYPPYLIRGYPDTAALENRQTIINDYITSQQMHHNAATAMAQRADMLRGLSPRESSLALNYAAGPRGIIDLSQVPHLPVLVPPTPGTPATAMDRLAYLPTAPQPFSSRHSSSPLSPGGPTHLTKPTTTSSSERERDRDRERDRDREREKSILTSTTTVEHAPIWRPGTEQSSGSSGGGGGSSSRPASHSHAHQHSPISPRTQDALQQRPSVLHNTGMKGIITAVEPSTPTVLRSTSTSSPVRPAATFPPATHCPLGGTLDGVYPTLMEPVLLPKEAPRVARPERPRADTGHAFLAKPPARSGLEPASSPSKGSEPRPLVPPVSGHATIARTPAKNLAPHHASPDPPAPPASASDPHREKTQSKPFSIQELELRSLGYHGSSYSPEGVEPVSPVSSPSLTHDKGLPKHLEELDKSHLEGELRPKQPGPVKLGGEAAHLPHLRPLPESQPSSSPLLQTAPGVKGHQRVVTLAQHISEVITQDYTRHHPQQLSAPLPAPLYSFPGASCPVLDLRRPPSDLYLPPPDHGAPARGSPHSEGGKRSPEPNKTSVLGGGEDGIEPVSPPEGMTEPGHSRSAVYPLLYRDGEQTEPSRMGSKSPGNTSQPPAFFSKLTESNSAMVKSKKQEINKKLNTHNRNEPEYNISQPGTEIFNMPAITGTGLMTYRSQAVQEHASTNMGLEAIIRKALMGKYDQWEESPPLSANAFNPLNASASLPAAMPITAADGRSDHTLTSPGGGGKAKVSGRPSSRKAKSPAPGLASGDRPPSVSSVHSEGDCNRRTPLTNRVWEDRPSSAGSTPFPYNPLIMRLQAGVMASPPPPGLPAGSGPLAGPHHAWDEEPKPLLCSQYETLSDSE
Melanin-concentrating hormone receptor 1, sequence (Q99705 whole entry): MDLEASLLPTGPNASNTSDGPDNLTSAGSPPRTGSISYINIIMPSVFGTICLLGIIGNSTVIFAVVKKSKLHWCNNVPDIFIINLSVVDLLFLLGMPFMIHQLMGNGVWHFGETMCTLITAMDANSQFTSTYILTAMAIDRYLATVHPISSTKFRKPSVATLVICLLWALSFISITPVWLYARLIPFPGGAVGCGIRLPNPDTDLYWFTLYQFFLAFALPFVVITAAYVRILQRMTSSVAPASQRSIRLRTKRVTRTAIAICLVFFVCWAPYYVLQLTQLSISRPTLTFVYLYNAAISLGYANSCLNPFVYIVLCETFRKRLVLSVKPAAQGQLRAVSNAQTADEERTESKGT

COC(=O)C1=C(C)N(Cc2ccco2)C(=O)N[C@H]1c1ccccc1
IC50 (cells): 21.8 µM (active)
CC50 [1]: > 50 µM (active)

COC(=O)c1ccccc1NC(=O)c1nc(S(=O)(=O)Cc2ccccc2)ncc1Cl
EC50 (Streptokinase A): 3.08 µM (active)
AC50 [2]: 0.428 µM (active)
AC50 [3]: 1.84 µM (active)
AC50 (INS1): 6.88 µM (active)
EC50 [4]: > 50 µM (not active)
EC50 (Streptococcus [5]): > 56 µM (not active)
AC50 [6]: 8.03 µM (active)
EC50 (Streptococcus [7]): > 150 µM (not active)

CCOc1cccc(C2C(C(=O)c3ccc(C)o3)=C(O)C(=O)N2CCCn2ccnc2)c1 (stereo unspecified)
IC50 [8]: 16.8 µM (not active)
IC50 [9]: > 39.8 µM (not active)

O=P(Cc1cc(Br)cc(Br)c1OCCO)(c1ccccc1)c1ccccc1
IC50 [10]: 9.96 µM (active)
IC50 [11]: > 43.8 µM (not active)

CCCCOc1ccc(-c2c(C#N)c(S)nc(C)c2C(=O)Nc2ccccc2)cc1
IC50 [8]: 0.778 µM (active)
IC50 [9]: 0.33 µM (active)
